Reference: patent US20210353681A1, “USE OF TNKS INHIBITORS FOR REGENERATION OF CARTILAGE” (SEOUL NATIONAL UNIVERSITY R&DB FOUNDATION, priority 2020, published 2021)

What was measured:
[1] = system: primary cultured mouse chondrocytes; assay: mRNA and protein levels of cartilage-specific matrix genes in primary cultured mouse chondrocytes; format: cell-based; conditions: for expression of cartilage-specific matrix genes: chondrocytes treated with drugs, mRNA and protein levels (FIG. 1f, g)
Procedure: Primary culture of mouse articular chondrocytes. For the primary culture of mouse articular chondrocytes, cells were isolated from femoral condyles and tibial plateaus of 4-5-day-old ICR mice, as described previously^83. Chondrocytes were maintained in DMEM supplemented with 10% fetal bovine serum (FBS), 100 units/ml penicillin, and 100 μg/ml streptomycin, and cells were treated as indicated in each experiment. Transfection was performed with […] PRO (Biontex) according to the manufacturer's protocol. All siRNAs, including negative control siRNA, were purchased from Bioneer. Recombinant mouse Wnt-3a (315-20) was purchased from PeproTech, and recombinant mouse Dkk-1 (5897-DK) was purchased from R&D Systems.
RT-PCR and qPCR. Total RNAs were extracted using TRI reagent (Molecular Research Center, Inc.). RNAs were reverse transcribed using EasyScript Reverse Transcriptase (Transgen Biotech). Then, cDNA was amplified by PCR or qPCR with the primers listed in Table 2. qPCR was performed with SYBR TOPreal qPCR 2× preMIX (Enzynomics) to determine transcript abundance. Transcript quantity was calculated using the ΔΔCt method, and Hprt or HPRT1 levels were used as housekeeping controls. The log 2 (fold change) value of the cartilage stromal gene of mouse articular chondrocytes treated with siRNA was clustered using a hierarchical clustering algorithm (mean association and central correlation distance) in 1.0.4 R package. PCA was performed using the same R package.
Whole-cell lysate preparation. Whole-cell lysates were prepared in RIPA buffer (150 mM NaCl, 1% NP-40, 50 mM Tris, pH 8.0, 0.5% sodium deoxycholate, 0.1% SDS) supplemented with a protease inhibitor cocktail (Sigma-Aldrich).

[2] = system: articular cartilage of DMM-operated mouse; assay: Experimental OA in mice (DMM surgery), intra-articular hydrogel drug delivery; format: in vivo; conditions: for degeneration of cartilage matrix caused by DMM (Safranin O staining, OARSI grade): IA administration in hydrogel, 10 nmol drug
Procedure: Preparation of hydrogels and in vivo confirmation of controlled release of embedded molecules. 6-O-Palmitoyl-l-ascorbic acid (76183) was purchased from Sigma-Aldrich. […] PBS-suspended hydrogel (10 μl, PBS:hydrogel=1:1) containing 50 pmol DiD was administered intra-articularly, and at 1-9 days post-injection, light-emitting diode (LED) and fluorescence images of knee joints were obtained. LuminoGraph II (Atto) was used to acquire the images.
Experimental OA in mice. Eight-week-old male ICR mice were used for experimental OA. Experimental OA was induced by DMM (Destabilization of the medial meniscus) surgery on the right hindlimb, and sham surgery was conducted on the left hindlimb as a control (Glasson, S. S., Blanchet, T. J. & Morris, E. A. The surgical destabilization of the medial meniscus (DMM) model of osteoarthritis in the 129/SvEv mouse. Osteoarthritis Cartilage 15, 1061-1069, doi:10.1016/j.joca.2007.03.006 (2007)). 10 μl of PBS-suspended hydrogel (PBS:hydrogel=1:1) containing vehicle or 10 nmol drugs was administered intra-articularly.
Histology and immunohistochemistry. Mouse and rat knee joint samples and human cartilage samples were fixed with 4% paraformaldehyde overnight at 4° C. All samples were […] for 2-4 weeks 0.5M EDTA, pH 7.4 at 4° C. and embedded in paraffin. Mouse and rat paraffin blocks were sectioned at a thickness of 6 μm, and human paraffin blocks were sectioned to a thickness of 5 μm. […] Cartilage regeneration in osteochondral defect model was scored according to the International Cartilage Repair Society (ICRS) scoring system (Haikarainen, T., Krauss, S. & Lehtio, L. Tankyrases: structure, function and therapeutic implications in cancer. Curr Pharm Des 20, 6472-6488 (2014) and Mainil-Varlet, P. et al. Histological assessment of cartilage repair: a report by the Histology Endpoint Committee of the International Cartilage Repair Society (ICRS). J Bone Joint Surg Am 85-A Suppl 2, 45-57 (2003)) by three blinded observers.

mouse chondrocytes = assay: RNA sequencing and gene set enrichment analysis of treated chondrocytes; format: cell-based; conditions: drugs 10 μM for 108 h vs vehicle; siRNAs vs control siRNA
Procedure: RNA sequencing (RNA-seq). Primary cultured mouse articular chondrocytes were treated with DMSO or 10 μM of XAV939 or IWR-1 for 108 h or transfected with control siRNA or Tnks and Tnks2 siRNAs. Three biological replicates were used for each group. One microgram of high-quality RNA samples (RIN>7.0) were used to construct RNA-seq libraries with the TruSeq Stranded mRNA Library Prep kit (Illumina). Libraries were validated with an Agilent 2100 Bioanalyzer. RNA-seq was performed on an Illumina HiSeq 2500 sequencer at Macrogen. The sequence reads were trimmed with Trimmomatic^86 and mapped against the mouse reference genome (mm10) using TopHat. Read counts per gene were calculated using HTSeq^88. Differential expression analysis was conducted using the DESeq2 R package^89. DEGs were selected using a |fold change| cutoff of >3 and a FDR q cutoff of <1×10^−5. DEGs at least one condition were clustered with hierarchical clustering algorithm (ward.D linkage with euclidean distance) using gplots R package. GO analysis was conducted using Enrichr^90. Heatmaps of DEGs that are in the cartilage-signature gene set or the osteoarthritis-signature gene sets were drawn with Gitools.
GSEA analysis. Genes were ranked according to the shrunken log2 fold change calculated via DESeq2. […]

[3] = system: mouse limb-bud mesenchymal cells; assay: Mouse limb-bud micromass culture, Alcian Blue staining; format: cell-based; conditions: micromass cultures, treated 3 days
Procedure: Mouse limb-bud micromass culture. For the micromass culture of mesenchymal cells, limb-bud cells were isolated from E11.5 ICR mouse embryos. 2.0×10^7 cells/ml were suspended in DMEM supplemented with 10% FBS, 100 units/ml penicillin, and 100 μg/ml streptomycin, and 15-μ1 drops were spotted on culture dishes. After 24 h, cells were treated as indicated for 3 days and subjected to Alcian Blue staining.

| SMILES | expression of cartilage-specific matrix genes [1] | degeneration of cartilage matrix caused by DMM (Safranin O staining, OARSI grade) [2] | enrichment of cartilage-signature genes in whole transcriptome (GSEA) (mouse chondrocytes) | chondrogenic nodule formation [3] | cartilage destruction in late-stage OA (Safranin O staining, OARSI grade) ([2]; treatment started 6 weeks after DMM surgery, for additional 6 weeks, compared with vehicle-treated mice) | expression of cartilage matrisome ([1]; β-catenin inhibition in chondrocytes (FIG. 2e, f, g), iCRT 14 for 24 h) |
| --- | --- | --- | --- | --- | --- | --- |
| C[C@]1(c2nc3c(C(N)=O)cccc3[nH]2)CCCN1 [ABT-888] | failed to increase their expressions | – | – | – | – | – |
| O=C(Nc1cccc2cccnc12)c1ccc(N2C(=O)C3C4C=CC(C4)C3C2=O)cc1 (centres unmarked) [IWR-1, 4-(1,3,3a,4,7,7a-Hexahydro-1,3-dioxo-4,7-methano-2H-isoindol-2-yl)-N-8-quinolinyl-Benzamide] | increased the expression of cartilage-specific matrix genes | significant reduction in the degeneration of cartilage matrix | positively enriched | effectively induced chondrogenic nodule formation | – | – |
| O=c1[nH]c(-c2ccc(C(F)(F)F)cc2)nc2c1CSCC2 [XAV939, 3,5,7,8-Tetrahydro-2-[4-(trifluoromethyl)phenyl]-4H-thiopyrano[4,3-d]pyrimidin-4-one] | increased the expression of cartilage-specific matrix genes | significant reduction in the degeneration of cartilage matrix | positively enriched | effectively induced chondrogenic nodule formation | reduction in the cartilage destruction | – |
| Cc1cc(/C=C2\SC(=O)N(c3ccccc3)C2=O)c(C)n1-c1cccnc1 [iCRT 1429] | – | – | – | – | – | did not significantly affect the expression of cartilage matrisome |
